Values after ≈ are worked out from the molar mass of the structure shown. Square brackets hold non-standard residues; d marks the D form. Ends that are not written are not given here. Peptide text beside a SMILES is read from it. Trp(2,5,7-tBu3) = CC(C)(C)c1cc(C(C)(C)C)c2[nH]c(C(C)(C)C)c(C[C@H](N)C(=O)O)c2c1
What was measured:
MDR E. faecalis = assay: microbe, parasite or virus in culture; settings: CLSI broth microdilution; CAMHB with 50 mg/L Ca2+, 10 mg/L Mg2+; 5 × 10^5 CFU/ml; 18 h 37 °C; triplicate; strain ATCC 51575
Excerpt: (§1) MDR Pseudomonas aeruginosa (CCARM 2180) was purchased from the Culture Collection of Antimicrobial Resistance Microbes (Seoul, Republic of Korea). MDR Acinetobacter baumannii (ATCC BAA-1605) and MDR Enterococcus faecalis (ATCC 51575) were purchased from the American Type Culture Collection (Manassas, VA, USA). MDR Staphylococcus aureus (KCCM 40510) was purchased from the Korean Culture Center of Microorganisms (Seoul, Republic of Korea). S. aureus (KCTC 1621) was purchased from the Korean Collection for Type Cultures. A. baumannii (KCCM 40203) was purchased from the Korean Culture Center of Microorganisms (Seoul, Republic of Korea).
(§2) To assess antimicrobial activity, the MIC50 and MIC90 were measured using broth microdilution following CLSI guidelines. […] Each experiment was performed in triplicate. Meropenem (Sigma, Darmstadt, Germany) and colistin were used as control antibiotics. Cation-adjusted Mueller–Hinton broth (CAMHB) (Becton, Dickinson and Company, Franklin Lakes, USA) with supplied calcium (50 mg/L) and magnesium (10 mg/L) was used for the CLSI-test condition. Bacteria in midlog phase and peptides were separately diluted in CAMHB. The bacteria and peptide solutions were then mixed in 96-well polyethylene plates (SPL, Gyeonggi-do, Korea) and incubated for 18 h at 37 °C. The final concentration for bacteria was 5 × 10^5 CFU/ml. […] The MIC was defined to be the lowest concentration of peptide without visible turbidity by comparing with control antibiotics with the unaided eye. […] Each experiment was performed in triplicate. MICs in albumin and acetic acid solutions were measured using the same protocol but with 0.2% bovine serum albumin (Bovogen, Keilor, Australia), 0.01% acetic acid (Merck, New Jersey, USA), and CAMHB with both calcium and magnesium. In addition, MICs used in the antibiotic resistance acquisition test, the outer–inner membrane permeation test, and the transmembrane potential test and for FE-SEM were individually determined. The final bacterial concentrations used were as follows: for resistance acquisition, optical density (OD) 0.01; for outer–inner membrane permeability assays (LB), OD 0.1; for the transmembrane potential test, 1 × 10^8 CFU/ml (OD 0.171); […]. Inhibitory activity unidentifiable by direct observation was determined by counting the CFUs. Each experiment was performed at least twice.

MDR S. aureus = assay: microbe, parasite or virus in culture; settings: CLSI broth microdilution; CAMHB with 50 mg/L Ca2+, 10 mg/L Mg2+; 5 × 10^5 CFU/ml; 18 h 37 °C; triplicate; strain KCCM 40510
Excerpt: as §1, §2

MDR P. aeruginosa = assay: microbe, parasite or virus in culture; settings: CLSI broth microdilution; CAMHB with 50 mg/L Ca2+, 10 mg/L Mg2+; 5 × 10^5 CFU/ml; 18 h 37 °C; no visible turbidity; triplicate; strain CCARM 2180
Excerpt: as §1, §2

MDR A. baumannii = assay: microbe, parasite or virus in culture; settings: CLSI broth microdilution; CAMHB with 50 mg/L Ca2+, 10 mg/L Mg2+; 5 × 10^5 CFU/ml; 18 h 37 °C; triplicate; strain ATCC BAA-1605
Excerpt: as §1, §2

human red blood cells = assay: Hemolytic activity; format: cell-based; settings: red cells of human, 18 h
Experimental: Human red blood cells (Zenbio, North Carolina, USA) and peptides were separately diluted in PBS (blood concentration, 8%). The blood cell and peptide solutions were then mixed in 96-well polyethylene plates (SPL, Gyeonggi-do, Korea) and incubated for 18 h at 37 °C. The final concentration of human red blood cells was 4%, while peptide concentrations were 100 μM, 50 μM, 25 μM, 12.5 μM, 6.25 μM, 3.13 μM, 1.56 μM, and 0.78 μM. After incubation, the plates were centrifuged at 1000 × g for 5 min, and the supernatants were transferred to 96-well polyethylene plates. Hemolysis levels were determined by measuring the absorbance at 540 nm with a SpectraMax plate spectrophotometer (Molecular Devices, California, USA). Control samples were treated with 1% Triton X-100 (for 100% hemolysis) or solution with 0 μM peptide (for 0% hemolysis) and melittin (for positive control). Each experiment was performed in triplicate.

Molecule | Minimum inhibitory concentrations, MDR E. faecalis (MDR E. faecalis) [µM] | Minimum inhibitory concentrations, MDR S. aureus (MDR S. aureus) [µM] | Minimum inhibitory concentrations, MDR P. aeruginosa (MDR P. aeruginosa) [µM] | Minimum inhibitory concentrations, MDR A. baumannii (MDR A. baumannii) [µM] | Hemolysis percent, 25 μM (human red blood cells) [%] | Hemolysis percent, 50 μM (human red blood cells) [%] | Hemolysis percent, 100 μM (human red blood cells) [%]
WLLWIALRKK-NH2 [WCopW] | 10 | 5 | > 20 | 5 | – | – | –
CC[C@@H](C)[C@@H](NC(=O)[C@@H](Cc1c[nH]c2ccccc12)NC(=O)[C@@H](Cc1ccc(O)cc1)NC(=O)[C@@H](CC(C)C)NC(=O)[C@H](N)Cc1c[nH]c2ccccc12)C(=O)NCC(=O)N[C@H](CC(C)C)C(=O)N[C@H](CCCNC(=N)N)C(=O)N[C@H](CCCCN)C(=O)N[C@H](CCCCN)C(=O)N[C@H](CCCNC(=N)N)C(N)=O [WCopWY] (H-[dW][dL][dY][dW][dI]G[dL][dR][dK][dK][dR]-NH2) | 2.5 (≈ 3.79 µg/mL) | 10 (≈ 15.2 µg/mL) | 20 (≈ 30.4 µg/mL) | 1.25 (≈ 1.9 µg/mL) | – | – | –
CC[C@@H](C)[C@@H](NC(=O)[C@@H](Cc1c[nH]c2ccccc12)NC(=O)[C@@H](CCC(=O)O)NC(=O)[C@@H](CC(C)C)NC(=O)[C@H](N)Cc1c[nH]c2ccccc12)C(=O)NCC(=O)N[C@H](CC(C)C)C(=O)N[C@H](CCCNC(=N)N)C(=O)N[C@H](CCCCN)C(=O)N[C@H](CCCCN)C(=O)N[C@H](CCCNC(=N)N)C(N)=O [WCopWE] (H-[dW][dL][dE][dW][dI]G[dL][dR][dK][dK][dR]-NH2) | >20 | >20 | >20 | 10 (≈ 14.8 µg/mL) | – | – | –
CC[C@H](C)[C@H](NC(=O)[C@H](Cc1c[nH]c2ccccc12)NC(=O)[C@H](CC(C)C)NC(=O)[C@H](CC(C)C)NC(=O)[C@@H](N)Cc1c(C(C)(C)C)[nH]c2c(C(C)(C)C)cc(C(C)(C)C)cc12)C(=O)N[C@@H](C)C(=O)N[C@@H](CC(C)C)C(=O)N[C@@H](CCCNC(=N)N)C(=O)N[C@@H](CCCCN)C(=O)N[C@@H](CCCCN)C(N)=O [WtCopW] (H-[Trp(2,5,7-tBu3)]LLWIALRKK-NH2) | 20 (≈ 29.9 µg/mL) | 5 (≈ 7.47 µg/mL) | > 20 | 10 (≈ 14.9 µg/mL) | – | – | –
CC[C@@H](C)[C@@H](NC(=O)[C@@H](Cc1c[nH]c2ccccc12)NC(=O)[C@@H](CCCNC(=N)N)NC(=O)[C@@H](CCCNC(=N)N)NC(=O)[C@H](N)CCCNC(=N)N)C(=O)N[C@H](Cc1c[nH]c2ccccc12)C(=O)N[C@@H](C(=O)N[C@@H](C(=O)N[C@H](Cc1c[nH]c2ccccc12)C(N)=O)[C@H](C)CC)[C@H](C)CC [WCopW60] (H-[dR][dR][dR][dW][dI][dW][dI][dI][dW]-NH2) | – | 0.63 (≈ 0.872 µg/mL) | 5 (≈ 6.92 µg/mL) | 1.25 (≈ 1.73 µg/mL) | 15.51 ± 0.64 | 15.14 ± 3.22 | 15.17 ± 0.19
CC[C@@H](C)[C@@H](NC(=O)[C@@H](Cc1c[nH]c2ccccc12)NC(=O)[C@@H](CCCNC(=N)N)NC(=O)[C@H](N)CCCNC(=N)N)C(=O)N[C@H](Cc1c[nH]c2ccccc12)C(=O)N[C@@H](C(=O)N[C@@H](C(=O)N[C@H](Cc1c[nH]c2ccccc12)C(=O)N[C@H](CCCNC(=N)N)C(N)=O)[C@H](C)CC)C(C)C [WCopW54] (H-[dR][dR][dW][dI][dW][dV][dI][dW][dR]-NH2) | – | 0.63 (≈ 0.863 µg/mL) | 2.5 (≈ 3.42 µg/mL) | 0.63 (≈ 0.863 µg/mL) | 8.38 ± 1.14 | 11.43 ± 2.42 | 35.13 ± 4.13
CC[C@@H](C)[C@@H](NC(=O)[C@@H](Cc1c[nH]c2ccccc12)NC(=O)[C@H](NC(=O)[C@@H](CC(C)C)NC(=O)[C@H](N)Cc1c[nH]c2ccccc12)C(C)C)C(=O)N[C@H](Cc1c[nH]c2ccccc12)C(=O)N[C@H](CCCNC(=N)N)C(=O)N[C@H](CCCNC(=N)N)C(N)=O [WCopW32] (H-[dW][dL][dV][dW][dI][dW][dR][dR]-NH2) | 0.63 (≈ 0.765 µg/mL) | 0.63 (≈ 0.765 µg/mL) | – | 2.5 (≈ 3.03 µg/mL) | 1.66 ± 0.11 | 2.95 ± 0.21 | 4.53 ±0.01
CC[C@@H](C)[C@@H](NC(=O)[C@H](N)Cc1c[nH]c2ccccc12)C(=O)N[C@@H](C(=O)N[C@H](Cc1c[nH]c2ccccc12)C(=O)N[C@@H](C(=O)N[C@H](Cc1c[nH]c2ccccc12)C(=O)N[C@H](CCCNC(=N)N)C(=O)N[C@H](CCCNC(=N)N)C(=O)N[C@H](CCCNC(=N)N)C(N)=O)[C@H](C)CC)[C@H](C)CC [WCopW61] (H-[dW][dI][dI][dW][dI][dW][dR][dR][dR]-NH2) | – | 0.63 (≈ 0.872 µg/mL) | 5 (≈ 6.92 µg/mL) | 1.25 (≈ 1.73 µg/mL) | 6.90 ± 0.03 | 8.91 ± 0.75 | 11.6 ±0.99
CC[C@@H](C)[C@@H](NC(=O)[C@@H](Cc1c[nH]c2ccccc12)NC(=O)[C@@H](CC(C)C)NC(=O)[C@H](N)Cc1c[nH]c2ccccc12)C(=O)N[C@H](Cc1c[nH]c2ccccc12)C(=O)N[C@H](CCCNC(=N)N)C(=O)N[C@H](CCCNC(=N)N)C(=O)N[C@H](CCCNC(=N)N)C(N)=O [WCopW41] (H-[dW][dL][dW][dI][dW][dR][dR][dR]-NH2) | 1.25 (≈ 1.59 µg/mL) | – | – | 2.5 (≈ 3.18 µg/mL) | 0.01 ±0.01 | 0.04 ± 0.02 | 0.42 ±0.06
HLLWIALRKK-NH2 [HCopW] | >20 | >20 | >20 | >20 | – | – | –
CC[C@@H](C)[C@@H](NC(=O)[C@@H](Cc1c[nH]c2ccccc12)NC(=O)[C@@H](Cc1ccccc1)NC(=O)[C@@H](CC(C)C)NC(=O)[C@H](N)Cc1c[nH]c2ccccc12)C(=O)NCC(=O)N[C@H](CC(C)C)C(=O)N[C@H](CCCNC(=N)N)C(=O)N[C@H](CCCCN)C(=O)N[C@H](CCCCN)C(=O)N[C@H](CCCNC(=N)N)C(N)=O [WCopWF] (H-[dW][dL][dF][dW][dI]G[dL][dR][dK][dK][dR]-NH2) | 2.5 (≈ 3.75 µg/mL) | 2.5 (≈ 3.75 µg/mL) | 10 (≈ 15 µg/mL) | 1.25 (≈ 1.88 µg/mL) | – | – | –
